In publication PMC12562640, “Investigating Amphoteric 3,4′-Biscoumarin-Based ortho-[(Dialkylamino)methyl]phenols as Dual MAO and ChE Inhibitors” (International Journal of Molecular Sciences, 2025):
Converted amounts (≈) assume the structure as drawn. “And” between values parts separate entries of the source, which are not always exact repeats. Equal entries are not always repeated. “Also recorded” adds a separate entry of the source. Where two headings read alike, the source gives them in different places.

Legend:
human MAO-A [1] = biological target: T1, human MAO-A (Homo sapiens, UniProt P21397); experiment: biochemical; format: biochemical
T1 construct: purchased Sigma Aldrich; host or cells: insect cells infected with baculovirus (microsomes)
T1 sequence (P21397 1-527): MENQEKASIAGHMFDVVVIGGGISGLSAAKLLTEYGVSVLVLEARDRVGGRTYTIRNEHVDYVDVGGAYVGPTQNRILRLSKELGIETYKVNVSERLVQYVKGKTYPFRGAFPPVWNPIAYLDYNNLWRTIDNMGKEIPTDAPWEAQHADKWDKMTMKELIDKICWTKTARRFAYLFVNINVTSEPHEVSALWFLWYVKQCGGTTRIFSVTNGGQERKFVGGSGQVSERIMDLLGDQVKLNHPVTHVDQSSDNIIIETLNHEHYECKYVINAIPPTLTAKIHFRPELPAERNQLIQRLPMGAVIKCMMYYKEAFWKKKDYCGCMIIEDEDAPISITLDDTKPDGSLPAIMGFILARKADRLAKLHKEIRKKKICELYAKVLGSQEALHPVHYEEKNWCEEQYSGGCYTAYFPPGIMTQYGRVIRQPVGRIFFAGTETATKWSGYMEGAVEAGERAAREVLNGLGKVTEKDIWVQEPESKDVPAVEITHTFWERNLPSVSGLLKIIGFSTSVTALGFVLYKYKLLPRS
Experimental: (§1) The inhibition assays of human monoamine oxidases were conducted using a fluorescence-based method with kynuramine as a non-selective substrate for each isoform, MAO-A/B [44, 45, 46]. Recombinant human MAO-A and MAO-B (microsomes from insect cells infected with baculovirus; Sigma Aldrich, St. Louis, MO, USA) (Merk Life Science S.r.l., Milan, Italy) were used. The measurements were performed in triplicate in black round-bottom polystyrene 96-well plates (Greiner Bio-One, Kremsmünster, Austria). […] In the MAO inhibition assays, all compounds were initially screened at a concentration of 10 µM. Each of them was preincubated at 37 °C for 20 min with 50 µM kynuramine in a phosphate buffer (PBS, 0.1 M, pH 8.0), adjusted to 0.39 osmolarity with KCl. After adding recombinant human MAO-A/B (250 U/mg and 59 U/mg, respectively) and incubating for another 30 min, NaOH was added. The fluorescence was measured at excitation/emission wavelengths of 310/400 nm. […] The IC50 is reported as the mean ± SD of three independent experiments, each performed in duplicate.

human huMAO-B = biological target: T2, human huMAO-B (Homo sapiens, UniProt P27338); experiment: biochemical; format: biochemical
T2 construct: purchased Sigma Aldrich; host or cells: insect cells infected with baculovirus (microsomes)
T2 sequence (P27338 1-520): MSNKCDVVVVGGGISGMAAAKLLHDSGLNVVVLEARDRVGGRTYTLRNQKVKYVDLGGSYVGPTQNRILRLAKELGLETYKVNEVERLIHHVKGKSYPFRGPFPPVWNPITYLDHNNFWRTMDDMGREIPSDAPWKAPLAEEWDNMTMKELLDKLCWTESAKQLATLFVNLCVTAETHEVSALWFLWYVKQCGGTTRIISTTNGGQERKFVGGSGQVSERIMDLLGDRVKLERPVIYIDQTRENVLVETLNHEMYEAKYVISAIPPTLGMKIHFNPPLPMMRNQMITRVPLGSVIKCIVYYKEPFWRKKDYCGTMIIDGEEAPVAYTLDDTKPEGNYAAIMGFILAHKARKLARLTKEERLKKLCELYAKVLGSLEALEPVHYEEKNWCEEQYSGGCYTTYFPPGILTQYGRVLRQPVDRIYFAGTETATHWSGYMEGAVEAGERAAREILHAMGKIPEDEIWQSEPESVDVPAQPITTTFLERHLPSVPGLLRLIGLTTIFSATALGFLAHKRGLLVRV
Experimental: as §1

[2] = Lipophilicity by RP-HPLC (log k'w); format: physicochemical; conditions: C18, extrapolated to 100% water mobile phase
Experimental: The lipophilicity of the five compounds in Table 4 was assessed by calculation and experimental approaches. As a calculated lipophilicity parameter (log Pcalc), we took from the SwissADME free website (http://www.swissadme.ch) the ‘Consensus Log Po/w’, that is, the arithmetic mean of octanol/water log Ps calculated by five methods (iLOGP, XLOGP3, WLOGP, MLOGP, and SILICOS-IT).
The lipophilicity parameters were determined by an RP-HPLC technique. In short, methanolic solutions of the examined compounds (1 mg·mL^−1) were analyzed by the Agilent 1260 infinite HPLC system (Agilent Technologies, Milan, Italy) equipped with a diode array detector (DAD), using a Phenomenex C18-column (Kinetex 5 μ, 100 Å, 150 × 3 mm) as the stationary phase and MeOH/water buffer mobile phases with different v/v composition (i.e., mobile phases containing 0.05 increments of MeOH volume fractions in 10 mM ammonium formate buffer at pH 4.5; φMeOH ranging between 0.70 and 0.20). The chromatographic measurements were carried out at 25 ± 1 °C, flow rate of 0.5 mL·min^−1, and detection at λ 330 nm. The log of capacity factors of each compound at different mobile phase compositions was calculated (log k′ = log (tR − t0)/t0, where tR represents the retention time of the solute and t0 is the column dead time). For each compound, the equation of the linear relationship between log k′ and φMeOH (R^2 > 0.991) on at least five datapoints, each from duplicate, was derived by regression analysis and the intercept at the y-axis (i.e., φMeOH = 0) calculated as the lipophilicity parameter log k′w.

[3] = Kinetic solubility in aqueous buffers (RP-HPLC); format: physicochemical; conditions: for solubility at 2 h: PBS buffer, 25 °C, pH 7.4, aqueous buffer, kinetic from dmso stock, read-out: Solubility Exp.; for experimental solubility in PBS pH 7.4, times higher than calculated with the ESOL model: PBS pH 7.4 vs ESOL
Experimental: Water solubility and lipophilicity parameters were measured following previously reported methods. […] The mixture was then separated by centrifugation at 2500 rpm for 3 min. Immediately after filtration, 100 µL of the filtrate was mixed with an equal volume of a 1:1 (v/v) DMSO and PBS (50 mM, pH 7.4, KCl 0.15 M) or HCl (0.01 M, pH 2, KCl 0.15 M) solution to prevent precipitation from the saturated solution and subsequently analyzed by HPLC. The peak area was compared to a calibration curve of the tested compound in MeOH. The analytical parameters were set as follows. Mobile phase: MeOH/water pH 2.8 (acetic acid 0.5% v/v) at different percentages depending on the retention time of each test compound; stationary phase: Phenomenex, Kinetex 5 µ, C8, (150 × 3 mm); flux: […]; injection: 2 µL; λ 330 nm. The analyses were performed on the Agilent HPLC 1260 Infinity Series Integrated System (Agilent Technologies, Milan, Italy).

horse serum eqBChE = biological target: T3, horse serum eqBChE (Equus caballus, UniProt P81908); experiment: biochemical; format: biochemical; conditions: at 10 µM concentration
T3 construct: Acetylcholinesterase from electric eel and butyrylcholinesterase from equine serum (Sigma Aldrich) were employed; purchased Sigma Aldrich; host or cells: equine serum
T3 sequence (P81908 whole entry): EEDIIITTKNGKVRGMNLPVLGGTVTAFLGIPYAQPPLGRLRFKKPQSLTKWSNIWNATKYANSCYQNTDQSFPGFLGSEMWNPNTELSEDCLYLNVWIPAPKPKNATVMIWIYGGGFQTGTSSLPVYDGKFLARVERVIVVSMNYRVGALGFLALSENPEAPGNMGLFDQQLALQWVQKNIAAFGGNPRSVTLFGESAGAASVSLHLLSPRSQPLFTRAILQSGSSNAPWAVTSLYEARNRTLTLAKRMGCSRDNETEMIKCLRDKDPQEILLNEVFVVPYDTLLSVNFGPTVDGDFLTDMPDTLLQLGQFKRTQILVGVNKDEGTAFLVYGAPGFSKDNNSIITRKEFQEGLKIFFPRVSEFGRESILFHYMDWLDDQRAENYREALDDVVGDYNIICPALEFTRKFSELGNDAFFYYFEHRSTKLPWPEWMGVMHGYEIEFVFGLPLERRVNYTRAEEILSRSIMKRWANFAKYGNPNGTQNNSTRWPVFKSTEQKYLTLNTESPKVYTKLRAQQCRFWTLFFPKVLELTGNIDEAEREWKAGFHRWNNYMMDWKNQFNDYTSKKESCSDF
Experimental: (§2) Cholinesterase inhibition assays were carried out using the Ellman spectrophotometric method, modified for a 96-well plate format. Acetylcholinesterase from electric eel and butyrylcholinesterase from equine serum (Sigma Aldrich) were employed. The measurements were performed in triplicate using clear, flat-bottom polystyrene plates (Greiner Bio-One).

electric eel eeAChE = biological target: T4, electric eel eeAChE (Electrophorus electricus, UniProt O42275); experiment: biochemical; conditions: for IC50: mean ± SD of three independent determinations, ~10 means 50–60% inhibition at 10 µM
T4 construct: Acetylcholinesterase from electric eel and butyrylcholinesterase from equine serum (Sigma Aldrich) were employed; purchased Sigma Aldrich; host or cells: electric eel (natural source)
T4 sequence (O42275 24-633): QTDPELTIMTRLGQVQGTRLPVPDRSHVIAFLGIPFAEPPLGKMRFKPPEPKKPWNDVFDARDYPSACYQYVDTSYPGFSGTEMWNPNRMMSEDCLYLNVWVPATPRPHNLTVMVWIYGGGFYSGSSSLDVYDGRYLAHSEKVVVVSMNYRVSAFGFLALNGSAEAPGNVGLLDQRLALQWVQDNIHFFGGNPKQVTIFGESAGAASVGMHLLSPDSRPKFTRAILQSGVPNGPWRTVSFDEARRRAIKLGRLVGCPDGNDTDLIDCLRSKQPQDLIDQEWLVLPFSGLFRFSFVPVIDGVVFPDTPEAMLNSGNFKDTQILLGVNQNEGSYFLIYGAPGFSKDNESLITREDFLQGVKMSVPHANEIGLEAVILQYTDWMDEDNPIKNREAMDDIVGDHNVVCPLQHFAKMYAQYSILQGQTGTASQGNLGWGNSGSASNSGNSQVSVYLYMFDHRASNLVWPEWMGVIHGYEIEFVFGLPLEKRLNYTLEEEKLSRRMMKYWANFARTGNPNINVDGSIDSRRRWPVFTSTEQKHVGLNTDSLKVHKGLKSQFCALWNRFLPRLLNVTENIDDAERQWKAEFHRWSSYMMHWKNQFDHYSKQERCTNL

human MAO-A [4] = biological target: T1, human MAO-A; experiment: Inhibition kinetics and time course of MAO-A inhibition; format: biochemical
From the text: For the sake of clarity, the position of the Mannich base (-CH2NR2) on the main coumarin core will be indicated as C8, whereas the positions of Cl or Br and OMe on the 4-coumarin-3-yl moiety will be indicated as C6′ and C8′.
Time courses of MAO-A inhibition by 2b and 5b, using a spectrophotometric assay measuring the absorbance of 4-
(1 picture or pasted object on this page, not shown here)

human huAChE = human huAChE (Homo sapiens, UniProt P22303); experiment: biochemical; format: biochemical; conditions: for inhibition at 10 µM: at 10 µM concentration, read-out: huAChE inhibition class
Sequence of human huAChE (P22303 32-614): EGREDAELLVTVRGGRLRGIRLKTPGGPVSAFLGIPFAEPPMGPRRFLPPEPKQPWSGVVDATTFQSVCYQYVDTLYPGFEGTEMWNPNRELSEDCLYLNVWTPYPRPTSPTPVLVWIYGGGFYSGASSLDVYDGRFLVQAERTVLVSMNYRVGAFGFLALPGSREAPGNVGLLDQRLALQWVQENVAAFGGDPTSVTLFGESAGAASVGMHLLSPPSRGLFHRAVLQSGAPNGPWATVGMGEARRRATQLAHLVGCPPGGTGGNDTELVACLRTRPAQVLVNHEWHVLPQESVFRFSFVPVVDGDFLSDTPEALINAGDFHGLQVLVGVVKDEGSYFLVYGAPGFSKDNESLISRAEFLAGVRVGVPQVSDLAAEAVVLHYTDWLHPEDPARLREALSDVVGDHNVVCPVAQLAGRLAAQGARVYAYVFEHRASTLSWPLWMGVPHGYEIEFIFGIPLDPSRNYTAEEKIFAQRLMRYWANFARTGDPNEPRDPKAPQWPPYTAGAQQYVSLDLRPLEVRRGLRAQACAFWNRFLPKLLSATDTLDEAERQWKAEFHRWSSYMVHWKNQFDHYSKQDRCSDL
Experimental: The inhibition of human huAChE was also evaluated for five compounds.
as §2

[5] = Hydrolytic stability in aqueous buffers; conditions: 0.01 M HCl (pH 2.0) and 0.05 M PBS (pH 7.4), 37 ± 1 °C, 1 h, 100 μM
Experimental: Sample solutions at 100 μM (DMSO as the cosolvent, 1% v/v) were incubated at 37 ± 1 °C for 1 h, following shaking of the solution on an orbital shaker at 250 rpm and monitoring by RP-HPLC.

[6] = PBS (50 mM, pH 7.4, 0.15 M KCl) at 25 ± 1 °C, n = 3
[7] = read-out: eqBChE inhibition class
[8] = mean ± SD of three independent determinations, ~10 means 50–60% inhibition at 10 µM
[9] = at 10 µM concentration, mean ± SD

CN(C)Cc1c(O)ccc2c(-c3cc4cc(Cl)ccc4oc3=O)cc(=O)oc12 [Compound 2b, 8-((dimethylamino)methyl)-4-(6-chloro-2-oxo-2H-chromen-3-yl)-7-hydroxy-2H-chromen-2-one]
IC50 (human MAO-A [1]): 1.49 ± 0.49 µM
IC50 (human huMAO-B): ~10 µM
Log k’w (polycratic capacity factor) [2]: 2.45
solubility at 2 h [3, 6]: 147 µM (≈ 58.5 µg/mL)
inhibition at 10 µM (horse serum eqBChE; [7]): < 10%
IC50 (electric eel eeAChE): ~10 µM
mode of inhibition of MAO-A (human MAO-A [4]; Michaelis–Menten and Lineweaver–Burk plots): competitive
Ki (human MAO-A [4]; human MAO-A, competitive inhibition, read-out: inhibition constant (Ki) MAO-A): 0.272 µM
reversibility of MAO-A inhibition (human MAO-A [4]; time course, absorbance of 4-hydroxyquinoline at 316 nm, inhibitor close to IC50): reversible
inhibition at 10 µM (human huAChE): < 10%

CN(C)Cc1c(O)ccc2c(-c3cc4cc(Br)ccc4oc3=O)cc(=O)oc12 [Compound 2c, 8-((dimethylamino)methyl)-4-(6-bromo-2-oxo-2H-chromen-3-yl)-7-hydroxy-2H-chromen-2-one]
hydrolytic stability [5]: stable over 1 h
IC50 (human MAO-A [1]): 2.23 ± 0.22 µM
huMAO-A IC50 (human MAO-A [1]; [8]): single-digit micromolar
IC50 (human huMAO-B): ~10 µM
Log k’w (polycratic capacity factor) [2]: 2.65
solubility at 2 h [3, 6]: 141 µM (≈ 62.4 µg/mL)
experimental solubility in PBS pH 7.4, times higher than calculated with the ESOL model [3]: thirteen
inhibition at 10 µM (horse serum eqBChE; [7]): < 10%
inhibition at 10 µM (electric eel eeAChE; [9]): 20%
inhibition at 10 µM (human huAChE): < 10%

CCN(CC)Cc1c(O)ccc2c(-c3cc4cc(Br)ccc4oc3=O)cc(=O)oc12 [Compound 3c, 8-((diethylamino)methyl)-4-(6-bromo-2-oxo-2H-chromen-3-yl)-7-hydroxy-2H-chromen-2-one]
IC50 (human MAO-A [1]): 3.04 ± 1.37 µM
huMAO-A IC50 (human MAO-A [1]; [8]): single-digit micromolar
inhibition at 10 µM (human huMAO-B; [9]): 42%
Log k’w (polycratic capacity factor) [2]: 2.89
Solubility Exp. [3, 6]: 181 µM (≈ 85.1 µg/mL)
experimental solubility in PBS pH 7.4, times higher than calculated with the ESOL model [3]: fifty; also recorded: fiftyfold
water solubility relative to 2c ([3]; at pH 7.4): 1.3 fold
inhibition at 10 µM (horse serum eqBChE; mean ± SD, read-out: eqBChE % inhibition): 37%
IC50 (electric eel eeAChE): < 10 µM and 1.56 µM
IC50 (human huAChE): 4.27 ± 0.58 µM

CCCCN(C)Cc1c(O)ccc2c(-c3cc4cc(Br)ccc4oc3=O)cc(=O)oc12 [Compound 5c]
hydrolytic stability [5]: stable over 1 h
IC50 (human MAO-A [1]; [8]): 2.52 ± 0.7 µM
huMAO-A IC50 (human MAO-A [1]; [8]): single-digit micromolar
IC50 (human huMAO-B; [8]): ~10 µM
eqBChE % inhibition (horse serum eqBChE; mean ± SD): [25 ± 11] %
